This passage reports IC50 and melting point results from patent publication US7615557B2, “Tetrahydro-naphthalene and urea derivatives” (Xention Limited, priority 2003, dated 2009).

The target of data set [1] is T1, Human vanilloid receptor (hVR1) (Homo sapiens, UniProt Q8NER1).
T1 construct: expressed in transfected cells
The data set is described as follows: Capsaicin-induced Ca2+ influx in the human VR1-transfected CHO cell line (Assay 1). The format is cell-based. Particulars: human VR1-CHOluc9aeq cells, stimulation with 10 nM capsaicin, Fluo-3 fluorescence (FDSS-3000); read-out: Activity Class (IC50). An excerpt:
[Measurement of Capsaicin-induced Ca^2+ influx in the Human VR1-transfected CHO Cell Line] (Assay 1)
• (1) Establishment of the Human VR1-CHOluc9aeq Cell Line • Human vanilloid receptor (hVR1) cDNA was cloned from libraries of axotomized dorsal root ganglia (WO 00/29577). The cloned hVR1 cDNA was constructed with pcDNA3 vector and transfected into a CHOluc9aeq cell line. The cell line contains aequorin and CRE-luciferase reporter genes as read-out signals. The transfectants were cloned by limiting dilution in selection medium (DMEM/F12 medium (Gibco BRL) supplemented with 10%
FCS, 1.4 mM Sodium pyruvate, 20 mM HEPES, 0.15% Sodium bicarbonate, 100 U/ml penicillin, 100 μg/ml streptomycin, 2 mM glutamine, non-essential amino acids and 2 mg/ml G418). Ca^2+ influx was examined in the capsaicin-stimulated clones. A high responder clone was selected and used for furter experiments in the project. The human VR1-CHOluc9aeq cells were maintained in the selection medium and passaged every 3-4 days at 1-2.5×10^5 cells/flask ([…]). • (2) Measurement of Ca^2+ Influx Using FDSS-3000 • Human VR1-CHOluc9aeq cells were suspended in a culture medium which is the same as the selection medium except for G418 and seeded at a density of 1,000 cells per well into 384-well plates (black walled clear-base/Nalge Nunc International). Following the culture for 48 hrs the medium was changed to 2 μM Fluo-3 AM (Molecular Probes) and 0.02% Puronic F-127 in assay buffer (Hank's balanced salt solution (HBSS), 17 mM HEPES (pH7.4), 1 mM Probenecid, 0.1% BSA) and the cells were incubated for 60 min at 25° C. After washing twice with assay buffer the cells were incubated with a test compound or vehicle for 20 min at 25° C. Mobilization of cytoplasmic Ca^2+ was measured by FDSS-3000 (λex=488 nm, λem=540 nm/Hamamatsu Photonics) for 60 sec after the stimulation with 10 nM capsaicin. Integral R was calculated and compared with controls. [Measurement of the Capsaicin-induced Ca^2+ Influx in Primary Cultured Rat Dorsal Root Ganglia Neurons] (Assay 2) • (1) Preparation of Rat Dorsal Root Ganglia Neurons • New born Wister rats (5-11 days) were sacrificed and dorsal root ganglia (DRG) was removed. DRG was incubated with 0.1% trypsin (Gibco BRL) in PBS(−) (Gibco BRL) for 30 min at 37° C., then a half volume of fetal calf serum (FCS) was added and the cells were spun down. The DRG neuron cells were resuspended in Ham F12/5% FCS/5% horse serum (Gibco BRL) and dispersed by repeated pipetting and passing through 70 μm mesh (Falcon). The culture plate was incubated for 3 hours at 37° C. to remove contaminating Schwann cells. Non-adherent cells were recovered and further cultured in laminin-coated 384 well plates (Nunc) at 1×10^4 cells/50 μl/well for 2 days in the presence of 50 ng/ml recombinant rat NGF (Sigma) and 50 μM 5-fluorodeoxyuridine (Sigma). • (2) Ca^2+ Mobilization Assay • DRG neuron cells were washed twice with HBSS supplemented with 17 mM BEPES (pH 7.4) and 0.1% BSA. After incubating with 2 μM fluo-3AM (Volectuar Probe), 0.02% PF127 (Gibco BRL) and 1 mM probenecid (Sigma) for 40 min at 37° C., cells were washed 3 times. The cells were incubated with VR1 antagonists or vehicle (dimethylsulfoxide) and then with 1 μM capsaicin in FDSS-6000 (λex=480 mn, λem=520 nm/Hamamatsu Photonics). The fluorescence changes at […] were monitored for 2.5 min. Integral R was calculated and compared with controls. [Organ Bath Assay to Measure the Capsaicin-induced Bladder Contraction] (Assay 3) • Male Wistar rats (10 week old) were anesthetized with ether and sacrificed by dislocating the necks. The whole urinary bladder was excised and placed in oxygenated Modified Krebs-Henseleit solution (pH 7.4) of the following composition (112 mM NaCl, 5.9 mM KCl, 1.2 mM MgCl2, 1.2 mM NaH2PO4, 2 mM CaCl2, […], 12 mM glucose). Contractile responses of the urinary bladder were studied as described previously [Maggi C A et al: Br. J. Pharmacol. 108: 801-805, 1993]. […]

A value given as a limit tells only on which side of the number the result lay.

T1 sequence (Q8NER1 whole entry): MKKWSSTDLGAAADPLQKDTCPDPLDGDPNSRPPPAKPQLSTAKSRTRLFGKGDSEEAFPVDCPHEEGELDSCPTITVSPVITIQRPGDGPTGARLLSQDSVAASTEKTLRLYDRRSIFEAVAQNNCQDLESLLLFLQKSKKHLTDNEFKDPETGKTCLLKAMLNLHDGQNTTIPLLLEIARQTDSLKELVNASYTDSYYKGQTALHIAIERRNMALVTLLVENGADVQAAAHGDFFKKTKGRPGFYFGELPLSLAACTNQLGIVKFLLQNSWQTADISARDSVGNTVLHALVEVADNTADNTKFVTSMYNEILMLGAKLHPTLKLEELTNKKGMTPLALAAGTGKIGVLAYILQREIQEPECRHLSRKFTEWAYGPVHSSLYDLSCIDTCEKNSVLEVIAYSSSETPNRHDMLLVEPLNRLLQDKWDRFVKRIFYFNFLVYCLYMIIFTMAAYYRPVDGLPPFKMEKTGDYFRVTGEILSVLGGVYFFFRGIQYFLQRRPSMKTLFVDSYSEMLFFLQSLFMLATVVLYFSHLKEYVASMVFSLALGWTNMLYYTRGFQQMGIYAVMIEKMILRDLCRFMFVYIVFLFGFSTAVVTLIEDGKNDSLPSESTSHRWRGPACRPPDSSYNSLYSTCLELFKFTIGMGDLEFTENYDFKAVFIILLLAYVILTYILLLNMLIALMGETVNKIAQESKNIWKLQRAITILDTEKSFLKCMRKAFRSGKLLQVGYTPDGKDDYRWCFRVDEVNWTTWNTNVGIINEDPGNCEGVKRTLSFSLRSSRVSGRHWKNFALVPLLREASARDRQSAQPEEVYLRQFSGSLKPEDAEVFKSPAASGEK

Take `O=C(Nc1cccc2c1C[C@@H](O)CC2)C1CCN(c2ccc(F)cc2)CC1` [Example 1-12, 1-(4-Fluorophenyl)-N-[(7S)-7-hydroxy-5,6,7,8-tetrahydronaphthalen-1-yl]piperidine-4-carboxamide]: the melting point – broadly, the temperature of the solid-liquid transition – came out at 205 °C. The 50% inhibitory concentration (IC50) (usually the concentration that gives 50% inhibition) in data set [1] was below 0.1 µM. `O=C(Nc1cccc2c1C[C@H](O)CC2)C1CCN(c2ccc(C(F)(F)F)cc2)CC1` [Example 1-25, N-[(7R)-7-Hydroxy-5,6,7,8-tetrahydronaphthalen-1-yl]-1-[4-trifluoromethyl-phenyl]piperidine-4-carboxamide]: the IC50 in data set [1] is below 0.1 µM. Turning to `O=C(Nc1cccc2c1C[C@H](O)CC2)C1CCN(c2cccc(C(F)(F)F)c2)CC1` [Example 1-15, N-[(7R)-7-Hydroxy-5,6,7,8-tetrahydronaphthalen-1-yl]-1-[3-trifluoromethyl-phenyl]piperidine-4-carboxamide], the IC50 in data set [1] is below 0.1 µM.

For `O=C(Nc1cccc2c1CC(O)CC2)C1CCN(c2ccccc2[N+](=O)[O-])CC1` (stereo not shown) [Example 1-4, N-(7-Hydroxy-5,6,7,8-tetrahydronaphthalen-1-yl)-1-(2-nitrophenyl)piperidine-4-carboxamide], the melting point was determined as 170 °C. The IC50 in data set [1] was below 0.1 µM. Take `O=C(Nc1cccc2c1C[C@H](O)CC2)C1CCN(c2ccc([N+](=O)[O-])cc2Cl)CC1` [Example 1-22, 1-[2-Chloro-4-nitrophenyl]-N-[(7R)-7-hydroxy-5,6,7,8-tetrahydronaphthalen-1-yl]piperidine-4-carboxamide]: the IC50 in data set [1] is below 0.1 µM. In turn, `O=C(Nc1cccc2c1CC(O)CC2)C1CCN(c2ccc(C(F)(F)F)cc2Cl)CC1` (stereo not shown) [Example 1-10, 1-[2-Chloro-4-(trifluoromethyl)phenyl]-N-(7-hydroxy-5,6,7,8-tetrahydronaphthalen-1-yl)piperidine-4-carboxamide] showed a melting point of 226 °C. In addition, the IC50 in data set [1] is below 0.1 µM. `O=C(Nc1cccc2c1C[C@H](O)CC2)C1CCN(c2ccc(F)cc2)CC1` [Example 1-11, 1-(4-Fluorophenyl)-N-[(7R)-7-hydroxy-5,6,7,8-tetrahydronaphthalen-1-yl]piperidine-4-carboxamide]: the melting point came out at 205 °C. Moreover, the IC50 in data set [1] is below 0.1 µM. Consider `O=C(Nc1cccc2c1C[C@H](O)CC2)C1CCN(c2ccc(OC(F)(F)F)c(OC(F)(F)F)c2)CC1` [Example 1-18, 1-[3,4-Bis[trifluoromethoxy]phenyl]-N-[(7R)-7-hydroxy-5,6,7,8-tetrahydro-naphthalen-1-yl]piperidine-4-carboxamide], for which, in data set [1], the IC50 is below 0.1 µM. `O=C(Nc1cccc2c1CC(O)CC2)C1CCN(c2ccccc2F)CC1` (stereo not shown) [Example 1-6, 1-(2-Fluorophenyl)-N-(7-hydroxy-5,6,7,8-tetrahydronaphthalen-1-yl)piperidine-4-carboxamide] returned a melting point of 207 °C. Further, the IC50 in data set [1] is below 0.1 µM. With `O=C(Nc1cccc2c1C[C@@H](O)CC2)C1CCN(c2ccc(C(F)(F)F)cc2Cl)CC1` [Example 1-1, 1-[2-Chloro-4-(trifluoromethyl)phenyl]-N-[(7S)-7-hydroxy-5,6,7,8-tetrahydro-naphthalen-1-yl]piperidine-4-carboxamide], in data set [1], the IC50 is below 0.1 µM.

The compound `O=C(Nc1cccc2c1CC(O)CC2)C1CCN(c2ccc(C(F)(F)F)cc2)CC1` (stereo not shown) [Example 1-9, N-(7-Hydroxy-5,6,7,8-tetrahydronaphthalen-1-yl)-1-[4-(trifuoromethyl)phenyl]piperidine-4-carboxamide] displayed a melting point of 222 °C. For the same compound, the IC50 in data set [1] is below 0.1 µM.

Turning to `O=C(Nc1cccc2c1C[C@H](O)CC2)C1CCN(c2ccc(C(F)(F)F)cn2)CC1` [Example 1-24, N-[(7R)-7-Hydroxy-5,6,7,8-tetrahydronaphthalen-1-yl]-1-[5-(trifluoromethyl)-pyridin-2-yl]piperidine-4-carboxamide], in data set [1], the IC50 is below 0.1 µM. For the compound `O=C(Nc1cccc2c1C[C@H](O)CC2)C1CCN(c2ccccc2)CC1` [Example 1-14], the IC50 in data set [1] is below 0.1 µM.

On to `O=C(Nc1cccc2c1C[C@H](O)CC2)C1CCN(c2nccc(C(F)(F)F)n2)CC1` [Example 1-20, N-[(7R)-7-Hydroxy-5,6,7,8-tetrahydronaphthalen-1-yl]-1-[4-trifluoromethyl-pyrimidin-2-yl]-piperidine-4-carboxamide], for which the IC50 in data set [1] was below 0.1 µM. For the compound `O=C(Nc1cccc2c1C[C@H](O)CC2)C1CCN(c2ccc(Cl)cc2Cl)CC1` [Example 1-17, 1-[2,4-Dichlorophenyl]-N-[(7R)-7-hydroxy-5,6,7,8-tetrahydronaphthalen-1-yl]piperidine-4-carboxamide], the half-inhibitory concentration (IC50) in data set [1] was below 0.1 µM. Regarding `O=C(Nc1cccc2c1C[C@H](O)CC2)C1CCN(c2ncc(Cl)cn2)CC1` [Example 1-21, 1-[5-Chloropyrimidin-2-yl]-N-[(7R)-7-hydroxy-5,6,7,8-tetrahydronaphthalen-1-yl]piperidine-4-carboxamide], the IC50 in data set [1] is below 0.1 µM.

For the compound `CC(=O)Nc1cc(C(F)(F)F)ccc1N1CCC(C(=O)Nc2cccc3c2C[C@H](O)CC3)CC1` [Example 1-23], in data set [1], the IC50 was below 0.1 µM.

For the compound `O=C(Nc1cccc2c1CC(O)CC2)C1CCN(c2ccc(F)cc2)CC1` (stereo not shown) [Example 1-7, 1-(4-Fluorophenyl)-N-(7-hydroxy-5,6,7,8-tetrahydronaphthalen-1-yl)piperidine-4-carboxamide], the melting point was determined as 205 °C. Besides, in data set [1], the IC50 is below 0.1 µM. Take `O=C(Nc1cccc2c1CC(O)CC2)C1CCN(c2ccc(C(F)(F)F)cc2[N+](=O)[O-])CC1` (stereo not shown) [Example 1-5, N-(7-Hydroxy-5,6,7,8-tetrahydronaphthalen-1-yl)-1-[2-nitro(trifluoromethyl)phenyl]piperidine-4-carboxamide]: the melting point was found to be 218 °C. In addition, the IC50 in data set [1] was below 0.1 µM. For `O=C(Nc1cccc2c1C[C@H](O)CC2)C1CCN(c2ccc(OC(F)(F)F)cc2)CC1` [Example 1-19, N-[(7R)-7-Hydroxy-5,6,7,8-tetrahydronaphthalen-1-yl]-1-[4-trifluoromethoxy-phenyl]piperidine-4-carboxamide], in data set [1], the IC50 is below 0.1 µM. Regarding `O=C(Nc1cccc2c1C[C@H](O)CC2)C1CCN(c2ccc(C(F)(F)F)cc2Cl)CC1` [Example 1-13, 1-[2-Chloro-4-(trifluoromethyl)phenyl]-N-[(7R)-7-hydroxy-5,6,7,8-tetrahydronaphthalen-1-yl]piperidine-4-carboxamide], the melting point stood at 226 °C. Besides, the IC50 in data set [1] was below 0.1 µM. For `O=C(Nc1cccc2c1C[C@H](O)CC2)C1CCN(c2cccc(OC(F)(F)F)c2)CC1` [Example 1-16, N-[(7R)-7-Hydroxy-5,6,7,8-tetrahydronaphthalen-1-yl]-1-[3-trifluoromethoxy-phenyl]piperidine-4-carboxamide], the IC50 in data set [1] is below 0.1 µM. For the compound `O=C(Nc1cccc2c1C[C@H](O)CC2)C1CCN(c2cccc(Cl)c2)CC1` [Example 1-2, 1-[3-Chlorophenyl]-N-[(7R)-7-hydroxy-5,6,7,8-tetrahydronaphthalen-1-yl]piperidine-4-carboxamide], the IC50 in data set [1] was below 0.1 µM. The compound `O=C(Nc1cccc2c1CC(O)CC2)C1CCN(c2ccccc2Cl)CC1` (stereo not shown) [Example 1-3] gave a melting point of 210 °C. Besides, the IC50 in data set [1] was below 0.1 µM.
